Results taken from patent publication US20160256472A1, “COMPOSITIONS AND METHODS OF ADMINISTERING SAME” (PALMAYA PTY LTD, priority 2013, published 2016).
“Also recorded” adds a separate entry of the source.

What was measured:
[1] = system: craving and craving anxiety for smoking, alcohol or drug use; assay: Pilot study case reports: craving and craving anxiety after rapid (nasal/sublingual) delivery of micro-doses; format: in vivo, human; details: Example 7: bupropion 250 micrograms added, nasal delivery
Protocol: About 40-50 minutes later the craving anxiety for smoking started to climb.
Their craving for smoking and alcohol were linked making smoking more severe during times of alcohol use.
This profound change depends on them giving themself one or two doses before getting out of bed in the morning as this is the most severe craving in the day.
They averaged 20 doses per day.

[2] = in vivo; cited from earlier work
[3] = cited from earlier work
smoking addiction = details: Cochrane review; cited from earlier work
[4] = Oral naltrexone absorption and presence in blood stream; details: standard oral administration, one off dose of 50 mg per day
Excerpt: As with all addictions, craving anxiety builds and is then reduced at the time of drug use or when the habit is repeated. The cycle then repeats itself. Craving may present itself with anxiety or in some cases presents itself where the individual places himself in a risky situation or searches for the substance or opportunity for the substance or event.

[5] = oral dosage form, 50 mg per day; cited from earlier work

CC(NC(C)(C)C)C(=O)c1cccc(Cl)c1 (stereo not shown) [bupropion]
effect of bupropion on the effectiveness of the flumazenil/naltrexone combination [1]: maximise the effectiveness

CCOC(=O)c1ncn2c1CN(C)C(=O)c1cc(F)ccc1-2 [flumazenil]
half-life [2]: less than one | side effects ([3]; intravenous flumazenil, literature): panic attacks or fitting | safe dose ([3]; intravenous injection, recorded by Mims): up to 100 mg

O=C1CC[C@@]2(O)[C@H]3Cc4ccc(O)c5c4[C@@]2(CCN3CC2CC2)[C@H]1O5 [naltrexone]
efficacy in smoking addiction / smoking cessation (smoking addiction): does not give any evidence of smoking cessation; also recorded: not effective | time naltrexone is undetectable in the blood stream [4]: 18 hours a day | time after administration at which oral naltrexone disappears from the blood stream [5]: six
